Laboratory results from BindingDB's records for doi:10.1021/jm00041a011 (Ohio State University, 1994).
Values joined by “and” are separate entries in the source; they are usually repeats but may differ in a detail not shown here. Equal entries are not always repeated. Structures can show the parent of a compound that is named as a salt.

Assay: Tested for its ability to antagonize epinephrine induced primary wave aggregation in human platelets at alpha-2A-adrenergic receptor sites.

| Structure (SMILES) | IC50 |
| --- | --- |
| OC(c1cnc[nH]1)(c1cccc2ccccc12)C(F)(F)F (stereo unspecified) [2,2,2-Trifluoro-1-(1H-imidazol-4-yl)-1-naphthalen-1-yl-ethanol; hydrochloride] | > 300 µM |
| CC(c1cnc[nH]1)c1cccc2ccccc12 (stereo unspecified) [4-(1-Naphthalen-1-yl-ethyl)-1H-imidazole] | 12.3 µM and 9.1 µM |
| COC(c1cnc[nH]1)c1cccc2ccccc12 (stereo unspecified) [4-(Methoxy-naphthalen-1-yl-methyl)-1H-imidazole; hydrochloride] | 380 µM |
| c1ccc2c(Cc3cnc[nH]3)cccc2c1 [4-Naphthalen-1-ylmethyl-1H-imidazole; hydrochloride] | 3 µM |
| OC(c1cnc[nH]1)c1cccc2ccccc12 (stereo unspecified) [(1H-Imidazol-4-yl)-naphthalen-1-yl-methanol; hydrochloride] | 61.9 µM |
| O=C(c1cnc[nH]1)c1cccc2ccccc12 [(1H-Imidazol-4-yl)-naphthalen-1-yl-methanone; oxalic acid] | 580 µM |
